Results reported in US20060280723A1 (priority 2003, published 2006).
Where two headings read alike, the source gives them in different places.

Assays:
[1] = tested on: SARS-HCoV; settings: Lee et al., 2003 and Poutanen et al.; cited from earlier work
[2] = tested on: SARS-HCoV; settings: literature; cited from earlier work
[3] = tested on: SARS-HCoV 2003VA2774; format: cell-based, SARS human coronavirus (SARS-HCoV)
[4] = tested on: Vero E6 cells; assay: Cytotoxicity on Vero E6 cells without viral challenge; format: cell-based, African Green Monkey; settings: three days, inverted microscope
Experimental: To determine cytotoxicity, 100 microlitres of serial 10-fold dilutions of each treatment were incubated with 100 microlitres of Vero E6 cells giving a final cell count of 20,000 cells per well in a 96-well plate, without viral challenge.

[5] = tested on: SARS-HCoV, strain Frankfurt-1
[6] = tested on: Semliki Forest Virus; assay: Protection of Vero E6 cells from Semliki Forest Virus cytopathic effect (crystal violet); format: cell-based, Semliki Forest Virus (SFV)
Experimental: Vero E6 cells were seeded in 96-well plate, at a density of 10000 cells per well. […] Media was removed from cells, and cells were washed in 1× PBS, then fixed for 10 minutes at room temperature in 4% paraformaldehyde in PBS. Paraformaldehyde was removed and cells were stained with 0.2% crystal violet in 2% ethanol for 10 minutes at room temperature. Stained plates were washed and degree of colouration was quantified at 630 nm using an ELISA reader. Triplicate data is presented in graph format (FIG. 2).

[7] = tested on: Vero E6 cells
[8] = tested on: 'common cold' coronaviruses; settings: laboratory tests; cited from earlier work
[9] = 10^4 pfu/well, MOI 0.5, Vero E6 cells

CCOC(=O)C1=C[C@@H](OC(CC)CC)[C@H](NC(C)=O)[C@@H](N)C1 [Oseltamivir]
Therapeutic benefit in SARS-HCoV infection [1]: has not shown any therapeutic benefit

NC(=O)c1ncn([C@@H]2O[C@H](CO)[C@@H](O)[C@H]2O)n1 [Ribavirin]
Efficacy against SARS-HCoV in vitro [2]: negative results | CIA100 (reached: Yes) [3, 9]: Yes | Concentration at which complete cytopathic effect [3, 9]: 5,000 μg/ml | Inhibition of cytopathic effect ([3]; cytopathic endpoint assay, Vero E6 cells): inhibitory activity at all viral titres | Inhibition of cytopathic effect ([3]; high viral challenge 10^4 pfu/well, MOI 0.5): Complete inhibition | CIA100 (concentration inhibiting cytopathic effect in all four set-ups) ([3]; virus load 100 pfu/well): 500 µg/mL | CIA100 (concentration inhibiting cytopathic effect in all four set-ups) ([3]; virus load 1,000 pfu/well): 5,000 μg/ml | Cytotoxicity at inhibitory concentration [4]: showed cytotoxicity

Intron A: recombinant alpha IFN product from Schering Plough (IFN-alpha 2b)
IC50 Exp. Type 1, 10 TCID50 [5]: >3.125 IU/ml | IC50 Exp. Type 1, 100 TCID50 [5]: >3.125 IU/ml | IL50 Exp. Type 2, 10 TCID50 [5]: >3.125 IU/ml | IL50 Exp. Type 2, 100 TCID50 [5]: >3.125 IU/ml | Loss of protection ([6]; at 39 IU/ml): equivalent loss of protection | Degree of protection ([6]; at 625 IU/ml): same degree of protection | Concentration up to which cells were not fully protected from SARS-HCoV infection [3]: > 100000 IU/ml | Inhibition of cytopathic effect [3]: did not show significant inhibition | Tendency to increase baseline levels in the cytotoxicity assay [7]: no similar tendency

B1: Cystatin C: a protease inhibitor found in human blood (protein, UniProt P01034 27-146, looked up)
Cystatin-C: SSPGKPPRLVGGPMDASVEEEGVRRALDFAVGEYNKASNDMYHSRALQVVRARKQIVAGVNYFLDVELGRTTCTKTQPNLDNCPFHDQPHLKRKAFCSFQIYAVPWQGTMTLSKSTCQDA
Replication of 'common cold' coronaviruses [8]: found to block replication
